Assay [1] has as its target T1, KRASG12D interaction with PI3Kα, PI3Kγ, CRAF RBD, RALGDS RA (Homo sapiens, UniProt P01116, G12D).
T1 construct: expressed in transfected cells; host or cells: HEK293T
Nature of the assay: BRET2 cell assay, KRAS G12D-effector interaction. It is filed as cell-based. The note with it: HEK293T cells, 5, 10 and 20 μM, 20 h. An excerpt:
The BRET ratio corresponds to the light emitted by the GFP2 acceptor constructs (515 nm±30) upon addition of Coelenterazine 400a divided by the light emitted by the RLuc8 donor constructs (410 nm±80). The normalized BRET ratio is the BRET ratio normalized to the DMSO negative and calculated as follows: (BRETcompound/BRETDMSO)×100, where BRETcompound corresponds to the BRET ratio for the compound-treated cells, BRETDMSO to the DMSO-treated cells. Each experiment was repeated at least three times. Statistical analyses were performed using a one-way ANOVA followed by Dunnett's post-tests (*P<0.05, **P<0.01, ***P<0.001, ****P<0.0001). Where error bars are presented, they correspond to mean values±SD of biological repeats (a-c).
650,000 HEK293T were seeded in each well of a 6 well plate. 24 hours later, cells were transfected with an appropriated BRET-based RAS biosensor (i.e. RAS-effector) using Lipofectamine 2000 transfection reagent (Thermo-Fisher). […] The final concentrations in the cells were 0, 5, 10 and 20 µM (therefore the intermediate 10× concentrations were 0, 50, 100 and 200 μM. 10 μL of 10× compounds were added in each well of the 96 well plate to 0, 5, 10 and 20 µM final concentrations (with final 0.2% DMSO each). Quadruplicates were performed for each point. Cells were left for an additional 20 hours at 37° C. before the BRET2 signal reading directly after addition of Coelenterazine 400a substrate (10 µM final) to cells (Cayman Chemicals, cat #16157). BRET2 reading was carried out on an Envision instrument (2103 Multilabel Reader, PerkinElmer) with the BRET2 Dual Emission optical module (515 nm±30 and 410 nm±80; PerkinElmer).
The ability of Example compound 56 to inhibit RAS-effector PPI using the above cell-based RAS-effector BRET2 assay was investigated. […] We determined the effect of compound 56 (labelled Abd-7) on the interaction of KRAS^G12D and with PI3Kα and PI3Kγ, CRAF RAS-binding domain (RBD) and RALGDS RAS-associating domain (RA) compared with the low affinity Reference Compound Abd-2 FIG. 1a). […]
On the technique in general: BRET reads energy transfer from a luciferase to a nearby fluorophore.

Assay [2] deals with T2, GST-human KRas166 (G12V) GPPNHP (Homo sapiens, UniProt P01116, G12V).
T2 construct: made in house; host or cells: E. coli C41(DE3)
As to the kind of experiment: KRas small-molecule screening by SPR (Biacore T200). In kind it is binding. The note with it: compound 100 uM, 5% DMSO buffer; immobilised GST-KRas166 (G12V) GPPNHP. An outline of the steps: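 GST-KRas166 G12V loaded with GPPNHP, captured on anti-GST CM5 chip at 10,000–15,000 RU, GST reference channel. Compounds run at 100 uM in buffer with 100 mM NaCl, 5 mM MgCl2, 5% DMSO, with DMSO solvent correction; Rmax for 1:1 binding taken as 63 RU.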

Entries after “also recorded” stand apart in the source; their conditions may differ.

Results on two compounds are retold here after patent publication US12024506B2, “Compounds” (Oxford University Innovation Limited, priority 2018, dated 2024).

On to `COc1cc(-c2cccc3c2OCCO3)ccc1Nc1cccc(CN(C)C)c1.O=CO` [compound 72, [4-(2,3-Dihydro-benzo[1,4]dioxin-5-yl)-2-methoxy-phenyl]-(3-dimethylaminomethyl-phenyl)-amine formate salt], for which the “Effect on BRET signal, KRAS G12D/effector interactions” value in assay [1] (formate salt) is listed as “decreases KRAS G12D/effector domain interactions in a dose-dependent manner; also recorded: dose response reduction in BRET signal”. For the same compound, in assay [2], the “SPR Response Units” value came to 56 Response Units.

Take `COc1nc(-c2cccc3c2OCCO3)ccc1Nc1ccc(CN(C)C)cc1` [compound 56, [6-(2,3-Dihydro-benzo[1,4]dioxin-5-yl)-2-methoxy-pyridin-3-yl]-(4-dimethylaminomethyl-phenyl)-amine]: the “Effect on BRET signal, KRAS G12D/effector interactions” value in assay [1] is recorded as “reduces the BRET signal”. In addition, the “SPR Response Units” value in assay [2] came to 116 Response Units.
